Results: article PMC11975549, “Development of Potent Type V MAPK Inhibitors: Design, Synthesis, and Biological Evaluation of Benzothiazole Derivatives Targeting p38α MAPK in Breast Cancer Cells” (Archiv Der Pharmazie, 2025)
Several values for one entry are separate records, joined by “and”; a condition that tells them apart may be missing. Equal entries are not always repeated. Where two headings read alike, the source gives them in different places.

Key:
MDA‐MB‐231 cell line = tested on: MDA‐MB‐231 cell line; parameters: method as in PMID 30792101; details: MTT assay; cited from earlier work
p38α MAPK = details: cited from earlier work
MCF7 cell line = tested on: MCF7 cell line; parameters: method as in PMID 30792101; details: MTT assay; cited from earlier work
p38 MAPKα = test: p38 MAPK alpha ELISA, total level in treated MCF7 cells normalised to total protein (BCA); assay type: cell-based, human; details: MCF7 cells exposed to compound
Text: To account for variations in protein quantities among the cells. The total protein concentrations in cells subjected to the drugs were quantified. The p38 MAPKα levels were adjusted by dividing by the protein levels, yielding results represented as ng/μg protein (Table 3).
A bicinchoninic acid (BCA) protein assay kit (catalog no. 23227) was obtained from Thermo‐Fisher Scientific (IL, USA) and used to detect total protein by the BCA assay. In this assay, the reaction between BCA, Cu²⁺ ions, and Cu⁺ ions form a purple complex in alkaline conditions. The absorbance of this complex was measured at 562 nm, and the results were expressed in mg/mL.
The p38 MAPK alpha ELISA Kit (ab221012; Abcam, Cambridge, MA) was used to measure the levels of […] in cell lysates according to the manufacturer's instructions. The SimpleStep Enzyme‐Linked Immunosorbent Assay (ELISA) kit was designed to assess total p38 MAPKα protein semi‐quantitatively. The SimpleStep ELISA uses a reporter‐conjugated detection antibody, and an affinity‐tag labeled capture antibody to immunocapture the sample analyte in solution. An anti‐tag antibody coating the well immobilizes the entire complex (capture antibody, analyte, and detection antibody).
Samples or controls were added to the wells, followed by the Antibody Cocktail to complete the test. After incubation, the wells were washed to remove unbound material. […] The levels of MAPK were normalized to total protein content.

L929 cells = test: MTT cytotoxicity assay, L929 healthy cells; assay type: cell-based; details: healthy mouse fibroblast
Description: (§1) Cell culture experiments were performed to assess the antiproliferative efficacy of the synthesized benzothiazole compounds on the MCF7 and MDA‐MB‐231 cell lines. The anticancer activity of the compounds were compared with the L929 healthy cell line as a control. Doxorubicin and cisplatin, the anticancer agents, were employed as positive controls.
(§2) Human epithelial breast adenocarcinoma (MDA‐MB‐231) (ATCC® HTB‐26™), human epithelial breast adenocarcinoma (MCF7) (ATCC® HTB‐22™), and healthy mouse fibroblast (L929) (ATCC® CRL‐10317™) cells were obtained commercially from ATCC.
(§3) MDA‐MB‐231, MCF7, and L929 cells were seeded in 25 cm² flasks. DMEM medium containing 10% FBS, 1% Penicillin‐Streptomycin, L‐Glutamine, and NaHCO₃ was used as the cell culture medium. The cells were incubated and propagated at 37°C in an environment containing 5% CO₂ and 95% humidity. When the cells reached 80%–90% confluency, they were passaged to different media. During passaging, DMEM was first withdrawn, and the cells were washed with PBS to remove FBS from the medium. Then, Trypsin‐EDTA solution was added to the flask to detach the cells, and the flask was kept in a CO₂ incubator for approximately 1 min. To stop the activity of Trypsin‐EDTA medium containing FBS was added to the flask. The cells were collected into a Falcon tube and centrifuged at 800 rpm for 5 min at room temperature. The supernatant was discarded, and the cell pellet was resuspended in the medium and seeded on cell culture plates according to the experimental protocol.
(§4) A total of 2 mg of each compound was dissolved in an appropriate amount of dimethyl sulfoxide (DMSO) to prepare 10 mM stock solutions. These stock solutions were then diluted to create 100 μM intermediate stocks and stored at −80°C. Commercially purchased cisplatin and doxorubicin HCl (Sigma, St. Louis, MO) were dissolved in DMSO following the manufacturer's protocol to create 20 mM stock solutions. These standard drug molecules were diluted from the stock solution, divided into 100 μM aliquots, and stored at –80°C until use.
(§5) MTT analysis was performed to evaluate the in vitro cytotoxicity of the synthesized compounds against different cancer cell lines. Cells used in the cytotoxicity experiments were cultured in DMEM medium supplemented with 10% FBS. Cells suspended in the medium (2 × 10⁴ cells/mL) were seeded into 96‐well culture plates and incubated at 37°C in a 5% CO₂ incubator. After 12 h, compounds were added at different doses (2 µL) to cells (2 × 10⁴) in the 96‐well plates and incubated at 37°C for 24 h.
(§6) The incubated cells were then treated with 20 µL of MTT solution and incubated at 37°C for 4 h. The supernatant was carefully removed from each well, and 100 µL of DMSO was added to each well to dissolve the formazan crystals formed by the cellular reduction of MTT. The absorbance was measured at 570 nm using an ELISA reader. […] At the end of the experiment, the device calculated the IC50 value for each well, and the average values were recorded. Each experiment was performed in at least three replicates.

MCF7 cells = test: MTT antiproliferative assay, MCF7; assay type: cell-based, human; details: for IC50: MTT, 24 h incubation; for Selectivity MCF7: Selectivity index = L929 IC50 / MCF7 IC50 (24 h)
Description: as §1, §2, §3, §4, §5, §6

MDA‐MB‐231 cells = test: MTT antiproliferative assay, MDA-MB-231; assay type: cell-based, human; details: for IC50: MTT, 24 h incubation; for Selectivity MDA‐MB‐231: Selectivity index = L929 IC50 / MDA‐MB‐231 IC50 (24 h)
Description: as §1, §2, §3, §4, §5, §6

SMILES	Total p38α MAPK levels (p38 MAPKα)	IC50 (L929 cells; L929, 24 h incubation)	IC50 (MCF7 cells; Homo sapiens, MCF7)	Selectivity MCF7 (MCF7 cells)	IC50 (MDA‐MB‐231 cells; Homo sapiens, MDA-MB-231)	Selectivity MDA‐MB‐231 (MDA‐MB‐231 cells)	also measured
COc1c(C(=O)/C=C/c2ccc(C)o2)c(O)c(Br)c2occc12 [Compound 9i]							IC50 (MDA‐MB‐231 cell line): 2.09 µM; IC50 (p38α MAPK; read-out: IC50 p38α MAP kinase): 0.04 µM; IC50 (MCF7 cell line): 1.35 µM
O=C(CSc1nnc(COc2ccccc2)n1-c1ccc(F)cc1)Nc1nc2ccccc2s1 [Compound 13m]							IC50 (p38α MAPK; read-out: IC50 p38α MAPK): 0.031 µM
Cc1ccc(C(=O)Nc2nc3ccccc3s2)cc1 [Compound 8, N‐(Benzo[d]thiazol‐2‐yl)‐4‐methylbenzamide]	9.541 ± 0.099 ng/μg protein	6.44 ± 0.05 µM	4.69 ± 0.05 µM	1.373	5.2 ± 0.19 µM	1.238	
COc1c(-c2cc(-c3ccc(F)cc3)c(C#N)c(=N)[nH]2)c(O)c(Br)c2occc12 [Compound 8h]							IC50 (p38α MAPK; read-out: IC50 p38α MAPK): 0.27 µM
Clc1cccc(Cl)c1Nc1ccccc1Cc1nncn1Nc1nc2ccccc2s1 [Compound 12l]							IC50 (p38α MAPK; read-out: IC50 p38α MAPK): 0.036 µM
CS(=O)(=O)CCNCc1ccc(-c2ccc3ncnc(Nc4ccc(OCc5cccc(F)c5)c(Cl)c4)c3c2)o1 [lapatinib]							IC50 (MDA‐MB‐231 cell line): 4.69 µM; IC50 (MCF7 cell line): 4.69 µM
COc1ccc(C(=O)NCc2nc3ccccc3s2)cc1 [Compound 17, N‐(Benzo[d]thiazol‐2‐ylmethyl)‐4‐methoxybenzamide]	6.411 ± 1.604 ng/μg protein	25.09 ± 0.18 µM	11.1 ± 0.23 µM	2.271	16.7 ± 0.36 µM	1.499	
O=C(NCc1nc2ccccc2s1)c1ccco1 [Compound 15, N‐(Benzo[d]thiazol‐2‐ylmethyl) furan‐2‐carboxamide]	0.155 ng/μg protein and 0.155 ± 0.045 ng/μg protein	26.8 ± 0.84 µM	8.83 ± 0.43 µM	3.031	11.78 ± 0.11 µM	2.272	
COc1ccc(C(=O)Nc2nc3ccccc3s2)cc1 [Compound 1, N‐(Benzo[d]thiazol‐2‐yl)‐4‐methoxybenzamide]	7.367 ± 1.291 ng/μg protein	24.5 ± 0.56 µM	11 ± 0.27 µM	2.227	15.8 ± 0.75 µM	1.549	
Cc1ccc(C(=O)NCc2nc3ccccc3s2)cc1 [Compound 18, N‐(Benzo[d]thiazol‐2‐ylmethyl)‐4‐methylbenzamide]	1.34 ± 0.154 ng/μg protein	29.1 ± 0.52 µM	11.2 ± 0.75 µM	2.604	20.2 ± 0.73 µM	1.442	
COc1cccc(CC(=O)Nc2nc3ccccc3s2)c1 [Compound 21, N‐(Benzo[d]thiazol‐2‐yl)‐2‐(3‐methoxyphenyl) acetamide]	1.333 ± 0.007 ng/μg protein			9.354		10.330	IC50 (L929 cells; 24 h incubation): 66.3 ± 1.82 µM; IC50 (MCF7 cells): 7.09 ± 0.02 µM; IC50 (MDA‐MB‐231 cells): 6.42 ± 0.07 µM
O=C(NCc1nc2ccccc2s1)c1ccccc1 [Compound 10, N‐(Benzo[d]thiazol‐2‐ylmethyl) benzamide]	0.535 ± 0.079 ng/μg protein	40.82 ± 0.12 µM	5.64 ± 0.34 µM	7.238	13.5 ± 0.54 µM	3.019	
O=C(Cc1ccc(Cl)cc1)Nc1nc2ccccc2s1 [Compound 23, N‐(Benzo[d]thiazol‐2‐yl)‐2‐(4‐chlorophenyl) acetamide]	2.331 ± 1.241 ng/μg protein			6.550		7.666	IC50 (L929 cells; 24 h incubation): 54 ± 1.08 µM; IC50 (MCF7 cells): 8.24 ± 0.19 µM; IC50 (MDA‐MB‐231 cells): 7.04 ± 0.18 µM
O=C(Nc1nc2ccccc2s1)c1ccc(Cl)cc1 [Compound 9, N‐(Benzo[d]thiazol‐2‐yl)‐4‐chlorobenzamide]	0.166 ± 0.015 ng/μg protein	6.43 ± 0.05 µM	3.49 ± 0.32 µM	1.842	6.02 ± 0.18 µM	1.068	
O=C(Nc1nc2ccccc2s1)c1ccco1 [Compound 4, N‐(Benzo[d]thiazol‐2‐yl) furan‐2‐carboxamide]	8.529 ± 0.9 ng/μg protein	26.03 ± 0.13 µM	11.08 ± 0.08 µM	2.349	19.9 ± 0.36 µM	1.305	
COc1c(-c2cc(-c3ccc(C)o3)c(C#N)c(N)n2)c(O)c(Br)c2occc12 [Compound 6f]							IC50 (p38α MAPK; read-out: IC50 p38α MAP kinase): 0.04 µM
CCNC(=O)c1ccc(C)c(NC(=O)c2ccc3c(-c4ccc(Cl)cc4)n[nH]c3c2)c1 [Compound 11k, 3‐(4‐chlorophenyl)‐N‐(5‐(ethylcarbamoyl)‐2‐methylphenyl)‐1H‐indazole‐6‐carboxamide]							IC50 (p38α MAPK; read-out: IC50 p38α MAPK): 3.37 ± 0.24 µM
COc1cccc(-c2nn(-c3ccccc3)cc2-c2ccncc2)c1 [Compound 4d]							IC50 (p38α MAPK; relative selectivity in comparison to 15 other kinases, read-out: IC50 p38α): 0.515 µM
O=C(Nc1nc2ccccc2s1)c1cccs1 [Compound 3, N‐(Benzo[d]thiazol‐2‐yl) thiophene‐2‐carboxamide]	0.43 ± 0.005 ng/μg protein	35.2 ± 0.95 µM	16 ± 0.46 µM	2.209	15 ± 0.57 µM	2.345	
O=C(Cc1ccccc1)Nc1nc2ccccc2s1 [Compound 19, N‐(Benzo[d]thiazol‐2‐yl)‐2‐phenylacetamide]	0.112 ng/μg protein and 0.112 ± 0.001 ng/μg protein	93.9 ± 1.9 µM	6.19 ± 1.05 µM	15.171	10.74 ± 0.03 µM	8.744	
